Measured values from ChEMBL document CHEMBL6134876, “End-to-End Backbone Cyclization Enhances Passive Permeability of bRo5 Oligomeric Depsipeptides with Nonlinear Size Dependence” (ACS Med Chem Lett, 2025).
Starred links: 1 amine or outer side, 2 acyl side, 3 side chain; linkers in the order of their positions; H or OH if unused. Non-standard residues stand in square brackets, D forms with d. Residues, ends and D or L forms follow the SMILES beside them. X1 = CCCCC[C@H](O[*:1])C(=O)[*:2]; Ahp(2) = CCCCC[C@H](N)C(=O)O; dNMeA = CN[C@H](C)C(=O)O

Columns and labels:
Format in all cases: ADME
[1] = Permeability of compound assessed as compound diffusion incubated for 14 to 18 hrs by PAMPA; conditions: time 14-18 hrs
[2] = Permeability of compound assessed as compound recovery incubated for 14 to 18 hrs by PAMPA; conditions: time 14-18 hrs, read-out: Drug recovery
[3] = Apparent permeability of compound incubated for 14 to 18 hrs by PAMPA; conditions: time 14-18 hrs

Row | SMILES | Activity [1] | recovery [2] | Papp [3] | logPapp [3]
1 | CCCCC[C@H](NC(=O)[C@@H](C)N(C)C(=O)[C@H](CCCCC)NC(=O)[C@@H](C)N(C)C(=O)[C@H](CCCCC)NC(=O)[C@@H](C)N(C)C(=O)[C@H](CCCCC)OC(=O)[C@@H](C)N(C)C(=O)OC(C)(C)C)C(=O)OCc1ccccc1 | 12% | 89% | – | –
2 | CCCCC[C@H](NC(=O)[C@@H](C)N(C)C(=O)[C@H](CCCCC)OC(=O)[C@@H](C)N(C)C(=O)[C@H](CCCCC)OC(=O)[C@@H](C)N(C)C(=O)[C@H](CCCCC)OC(=O)[C@@H](C)N(C)C(=O)OC(C)(C)C)C(=O)OCc1ccccc1 | – | 93% | – | –
3 | CCCCC[C@H](OC(=O)[C@@H](C)N(C)C(=O)[C@H](CCCCC)OC(=O)[C@@H](C)N(C)C(=O)[C@H](CCCCC)OC(=O)[C@@H](C)N(C)C(=O)[C@H](CCCCC)OC(=O)[C@@H](C)N(C)C(=O)[C@H](CCCCC)OC(=O)[C@@H](C)N(C)C(=O)[C@H](CCCCC)OC(=O)[C@@H](C)N(C)C(=O)OC(C)(C)C)C(=O)OCc1ccccc1 | < 5% | – | Below_limit_of_detection | Below_limit_of_detection
4 | CCCCC[C@H](NC(=O)[C@@H](C)N(C)C(=O)[C@H](CCCCC)NC(=O)[C@@H](C)N(C)C(=O)[C@H](CCCCC)OC(=O)[C@@H](C)N(C)C(=O)[C@H](CCCCC)OC(=O)[C@@H](C)N(C)C(=O)OC(C)(C)C)C(=O)OCc1ccccc1 | – | 92% | – | –
5 | CCCCC[C@@H]1NC(=O)[C@@H](C)N(C)C(=O)[C@H](CCCCC)OC(=O)[C@@H](C)N(C)C(=O)[C@H](CCCCC)NC(=O)[C@@H](C)N(C)C(=O)[C@H](CCCCC)OC(=O)[C@@H](C)N(C)C1=O (cyclo([Ahp(2)][dNMeA][X1][dNMeA][Ahp(2)][dNMeA][X1][dNMeA])) | 25% | – | – | –
